Test results reported in US9579378B2, “Combinations and uses thereof” (MORPHOSYS AG, priority 2012, dated 2017).

What was measured:
[1] = system: Human Multiple Myeloma NCI-H929 cells; assay: Orthotopic osteolysis model, microCT analysis of tibia (bone lysis); type: in vivo, SCID mice; conditions: for Total Bone Lysis: microCT, day 42, vehicle control = 100.0, Melphalan 4 mg/kg i.v., MOR03087 3 mg/kg i.p., 3x weekly for 6 weeks, data of FIG. 1
[2] = system: Human Multiple Myeloma NCI-H929 cells; assay: M-Protein concentration in sera (ELISA) on day 42 of the orthotopic osteolysis model; type: in vivo, SCID mice; conditions: sera at termination (day 42), versus mice that received solvent diluent only, FIG. 3

Molecule: N[C@@H](Cc1ccc(N(CCCl)CCCl)cc1)C(=O)O [Melphalan]
- Bone lysis (microCT, FIG. 2) ([1]; Melphalan 8 mg/kg alone, i.v. 3x weekly for 6 weeks, day 42): reduced bone lysis completely
- Total Bone Lysis [1]: 61.3%
- Protein M concentration in sera [2]: significantly reduced

B1: MOR03087: anti-CD38 antibody whose amino acid sequence and DNA sequence is provided in FIG. 4; disclosed in U.S. Pat. No. 8,088,896 (antibody, listed as Homo sapiens, V domains shown)
VH: QVQLVESGGGLVQPGGSLRLSCAASGFTFSSYYMNWVRQAPGKGLEWVSGISGDPSNTYYADSVKGRFTISRDNSKNTLYLQMNSLRAEDTAVYYCARDLPLVYTGFAYWGQGTLVTVSS
VL: DIELTQPPSVSVAPGQTARISCSGDNLRHYYVYWYQQKPGQAPVLVIYGDSKRPSGIPERFSGSNSGNTATLTISGTQAEDEADYYCQTYTGGASLVFGGGTKLTVLGQ
modifications: MOR202 Variable Heavy Domain; MOR202 Variable Light Domain
- Total Bone Lysis [1]: 27.6%
- Protein M concentration in sera [2]: significantly reduced
